The source of these data is ChEMBL document CHEMBL1139718, “Design, total synthesis, and biological evaluation of neodysiherbaine A derivative as potential probes” (Bioorg Med Chem Lett, 2006).

pKi: −log10 of the molar value.

The test system of one assay is Mus musculus. In words: Epileptogenic activity in mouse, icv. Format: functional.
A short description of assay [1]: Displacement of [3H]kainic acid from Kainate receptor in rat synaptic membrane. The format is cell membranes. (In general: Loss of bound radioactivity is the signal in a displacement assay; it reports binding, not function.)
Assay [2] can be described thus: Displacement of [3H]AMPA from AMPA receptor in rat synaptic membrane. The format is cell membranes.

Broadly, the pKi is −log10 of the Ki, conventionally taken in molar units. High values mean a low Ki, low ones a high Ki. Turning to `CN[C@H]1[C@H]2O[C@@](C[C@H](N)C(=O)O)(C(=O)O)C[C@H]2OC[C@H]1O` [DYSIHERBAINE], the ED50 in the assay on Mus musculus turned out to be 13 pmol. Besides, the pKi is 7.59 in assay [1] and 6.82 in assay [2].

Regarding `N[C@@H](C[C@]1(C(=O)O)C[C@H]2O[C@H](CO)[C@@H](O)[C@@H](O)[C@H]2O1)C(=O)O` [10-HYDROXY-METHYL-NEODYSIHERBAINE A], in the assay on Mus musculus, the ED50 is 110 pmol. Moreover, the negative-log Ki (pKi) in assay [1] was 6.10; in assay [2], 6.82.

Turning to `N[C@@H](C[C@]1(C(=O)O)C[C@H]2OC[C@@H](O)[C@@H](O)[C@H]2O1)C(=O)O` [NEODYSIHERBAINE A], the ED50 in the assay with Mus musculus was 16 pmol. The negative logarithm of the Ki (pKi) in assay [1] was 7.28; in assay [2], 6.82.
